According to patent US20240279225A1, “COMPOUNDS AND METHODS FOR THERANOSTIC TARGETING OF PARP ACTIVITY” (BOARD OF REGENTS, THE UNIVERSITY OF TEXAS SYSTEM, priority 2021, published 2024):
“Also recorded” adds a separate entry of the source. Read-outs that look alike come from different tables or passages of the source.

Key:
PARP1 [1] = molecular target: T1, PARP1 (Homo sapiens, UniProt P09874); conditions: purified enzyme assays, background values; cited from earlier work
[2] = humans, eight subjects with cancer and eight healthy volunteers; cited from earlier work
[3] = mouse models, cited from earlier work
[4] = Stability in full human plasma at 37° C.; assay type: in vitro ADME
[5] = system: MCF-7 cells stably transfected with MDR1 P-glycoprotein (Pgp); test: Cellular uptake of ^18F-Talazoparib, MCF-7 cells expressing MDR1 Pgp
Description: (§1) All experiments were performed in quadruplicate in a 24 well plate format. […] Experiment that abrogated metabolism were performed at 4° C., a temperature at which cellular membranes become less fluid and permeability is low. After 120 min, an aliquot of the cell media (200 μl) was obtained for gamma counting, the remaining media removed, and cells washed with MEBSS. Cells were then lysed with 1% SDS, 10 mM sodium borate for 30 min at room temperature. […] Protein contents were quantified using BCA protein assay kit (Thermos Scientific) according to the manufacture's protocol using bovine serum albumin (BSA) as the protein standard.

PARP1 [6] = molecular target: T2, PARP1 (Mus musculus, UniProt P11103); test: In vivo whole body biodistribution and blocking by small animal PET/CT
T2 construct: from tissue; host or cells: Lymphoid tissue and liver of a living nude female mouse
T2 sequence (P11103 whole entry): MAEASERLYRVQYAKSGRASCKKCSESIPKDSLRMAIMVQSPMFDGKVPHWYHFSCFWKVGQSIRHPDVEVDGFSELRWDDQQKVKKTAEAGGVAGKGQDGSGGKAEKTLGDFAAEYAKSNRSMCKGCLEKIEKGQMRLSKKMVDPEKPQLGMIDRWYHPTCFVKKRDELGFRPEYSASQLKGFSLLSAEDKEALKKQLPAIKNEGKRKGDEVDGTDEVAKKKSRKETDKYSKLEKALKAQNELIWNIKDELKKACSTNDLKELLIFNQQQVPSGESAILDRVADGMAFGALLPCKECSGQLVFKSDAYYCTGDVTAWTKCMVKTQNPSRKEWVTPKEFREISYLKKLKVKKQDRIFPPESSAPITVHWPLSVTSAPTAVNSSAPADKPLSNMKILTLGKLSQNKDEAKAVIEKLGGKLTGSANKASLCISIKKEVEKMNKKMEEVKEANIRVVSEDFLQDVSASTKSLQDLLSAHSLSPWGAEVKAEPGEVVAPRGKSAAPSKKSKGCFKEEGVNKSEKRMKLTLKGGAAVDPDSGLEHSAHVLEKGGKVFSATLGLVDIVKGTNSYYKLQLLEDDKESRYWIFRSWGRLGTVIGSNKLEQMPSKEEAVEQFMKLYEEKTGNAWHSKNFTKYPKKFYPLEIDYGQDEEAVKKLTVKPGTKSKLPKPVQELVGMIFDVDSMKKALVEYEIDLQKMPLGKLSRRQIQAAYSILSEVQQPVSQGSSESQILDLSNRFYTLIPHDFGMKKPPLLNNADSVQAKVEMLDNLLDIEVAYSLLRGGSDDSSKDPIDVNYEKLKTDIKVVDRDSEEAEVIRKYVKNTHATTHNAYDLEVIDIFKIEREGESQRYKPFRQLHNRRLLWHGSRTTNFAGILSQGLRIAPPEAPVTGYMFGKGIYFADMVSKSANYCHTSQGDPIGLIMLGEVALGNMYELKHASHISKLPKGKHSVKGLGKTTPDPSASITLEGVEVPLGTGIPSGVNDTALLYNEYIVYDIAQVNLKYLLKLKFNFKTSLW
Description: Preliminary PET images were acquired for 10 min using a 15 cm field of view (FOV); CT images were acquired for fusion using a 7 cm FOV and automatically “stitched” and fused to the PET imaging in the reconstruction software (Albira Suite, Bruker). […] Image data were decay corrected to injection time (Albira, Bruker) and expressed as % ID/cc or SUV as indicated (PMOD, PMOD Technologies). Actual injected dose was calculated based on measuring the pre- and post-injection activity in the syringe with a dose calibrator (Capintec) and mice were individually weighed to calculate individual standardized uptake values (SUV).
In vivo whole body biodistribution and blocking experiments were performed using a small animal PET/CT scanner after the injection of ^18F-Talazoparib (˜100 μCi) in a nude female mouse; images were acquired two hours post injection and decay corrected to the injection time.

MCF-7 empty vector cells = test: Cellular uptake of ^18F-Talazoparib, MCF-7 empty vector cells; assay type: cell-based
Description: as §1

[7] = Shelf stability in PBS (10% EtOH); assay type: physicochemical
PARP1 [8] = molecular target: T1, PARP1; test: PARP1 apoptosis assay kit (Trevigen), inhibition of purified PARP1 enzyme activity; assay type: biochemical; conditions: racemic mixture, three replicates per concentration

T1 sequence (P09874 whole entry): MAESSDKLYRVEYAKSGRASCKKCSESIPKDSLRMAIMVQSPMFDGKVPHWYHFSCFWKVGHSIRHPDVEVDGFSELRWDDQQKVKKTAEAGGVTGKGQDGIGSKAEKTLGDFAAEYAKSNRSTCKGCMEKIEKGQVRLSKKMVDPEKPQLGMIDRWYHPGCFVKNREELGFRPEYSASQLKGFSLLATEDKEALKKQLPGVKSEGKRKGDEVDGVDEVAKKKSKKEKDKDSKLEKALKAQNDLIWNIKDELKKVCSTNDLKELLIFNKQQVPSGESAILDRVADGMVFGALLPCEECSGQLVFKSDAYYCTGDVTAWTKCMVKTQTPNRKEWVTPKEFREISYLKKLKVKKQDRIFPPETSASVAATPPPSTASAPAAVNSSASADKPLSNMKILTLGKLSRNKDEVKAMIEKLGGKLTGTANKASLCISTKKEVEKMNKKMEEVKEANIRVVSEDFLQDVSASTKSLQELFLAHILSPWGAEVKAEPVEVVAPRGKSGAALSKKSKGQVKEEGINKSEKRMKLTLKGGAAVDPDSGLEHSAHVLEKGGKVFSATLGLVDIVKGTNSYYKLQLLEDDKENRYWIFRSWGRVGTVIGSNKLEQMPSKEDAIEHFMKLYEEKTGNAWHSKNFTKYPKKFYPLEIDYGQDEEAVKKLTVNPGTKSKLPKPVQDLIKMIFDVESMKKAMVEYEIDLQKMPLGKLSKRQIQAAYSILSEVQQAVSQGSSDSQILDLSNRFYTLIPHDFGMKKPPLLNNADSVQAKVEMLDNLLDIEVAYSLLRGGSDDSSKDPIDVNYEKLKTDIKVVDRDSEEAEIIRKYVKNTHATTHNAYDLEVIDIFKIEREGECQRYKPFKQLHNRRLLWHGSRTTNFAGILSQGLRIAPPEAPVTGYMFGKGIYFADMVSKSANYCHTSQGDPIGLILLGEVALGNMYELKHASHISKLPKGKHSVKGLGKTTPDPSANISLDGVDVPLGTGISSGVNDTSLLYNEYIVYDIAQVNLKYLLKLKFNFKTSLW

O=C1NCCn2c(-c3ccc(OCCF)cc3)nc3cccc1c32 [^18F-FTT]
IC50 (PARP1 [1]): 6.3 nM

O=C1NCCn2c(-c3ccc(OCC[18F])cc3)nc3cccc1c32 [^18F-FTT]
organ uptake on PET imaging [2]: high uptake in spleen, pancreas, and liver
intact parent molecule observed in the blood ([3]; after 5 minutes): 55%
intact parent molecule observed in the blood ([3]; after 30 min): 13%

Cn1ncnc1C1c2n[nH]c(=O)c3cc([18F])cc(c23)NC1c1ccc(F)cc1 (stereo not drawn) [^18F-Talazoparib, 5-[^18F]fluoro-8-(4-fluorophenyl)-9-(1-methyl·1H·1,2,4-triazol-5-yl)-2,7,8,9-tetrahydro-3H-pyrido[4,3,2-de]phthalazin-3-one]
stable in full human plasma [4]: up to 4 h
MDR1 Pgp transport substrate [5]: recognized as a transport substrate by MDR1 Pgp
basal retention at 4° C. ([5]; MDR1 Pgp expressed, 4° C.): further reduced
net retention of tracer ([5]; MDR1 Pgp expressed, 37° C., 120 min): drastic decrease in the net retention
basal retention with excess cold Talazoparib ([5]; MDR1 Pgp expressed, excess cold Talazoparib): fully displaced
cellular retention with Pgp-mediated efflux inhibited ([5]; MDR1 Pgp expressed, with LY or CP): increased back to levels compared to MCF-7 cells lacking MDR1 Pgp
blocking of lymphoid tissue and liver uptake by cold Talazoparib (PARP1 [6]; 0.3 mg/kg cold Talazoparib IV 60 minutes before tracer): could be blocked by excess cold Talazoparib; also recorded: blockade of target engagement of PARP1
excretion pathway (PARP1 [6]; 2 hr static images, vehicle-treated nude mice): mixed excretion pathway (renal and hepatobiliary clearance)
tissue uptake on PET images (PARP1 [6]; nude female mouse, ~100 μCi, two hours post injection): uptake in the lymphoid tissue (LT) located at the base of the neck, in the liver (L), and in excretory organs, such as bladder and intestine
cell uptake in presence of excess non-radioactive Talazoparib (MCF-7 empty vector cells; 37° C., 100 nM non-radioactive Talazoparib preincubated 30 min): completely blocked
cell uptake of tracer (MCF-7 empty vector cells; 120 min incubation at 37° C., compared to 4° C.): high uptake of the tracer compared to cells incubated at 4 °C
effect of MDR inhibitors on cell uptake (MCF-7 empty vector cells; LY-335979 or CP-100356 preincubated 30 min): no effect
shelf stability [7]: up to 4 h

methyl 2-(4-bromophenyl)-7-fluoro-3-(1-methyl-1H-1,2,4-triazol-5-yl)-4-oxo-1,2,3,4-tetrahydroquinoline-5-carboxylate [Compound 1]
IC50 (PARP1 [8]): 2.33 nM
